# ChEMBL document CHEMBL1201862, “PubChem BioAssay data set” (2004)
# The source made the active and inactive calls.
# Tests used:
# cells [1] = format: functional, cell-based
# cells [2] = format: functional, cell-based; remark: listed apart in the source
# [3] = alpha-synuclein stem-loop luciferase translation blockers – H4 neuroglioma cells, luminescence, confirmation (AID 1988); format: functional, cell-based
# [4] = microbe, parasite or virus in culture; format: functional; details: Mycobacterium tuberculosis
# [5] = test system: Streptococcus sp. 'group A'; assay: Streptococcus pyogenes SK(-)GAS viability under kanamycin – luminescence, BacTiterGlo, confirmation, counter-screen for streptokinase expression inhibitor project, dose response (AID 1900); format: functional, organism-based
# [6] = luciferase reporter signal suppression in cells – H4 neuroglioma cells, luminescence, dose response (AID 1990); format: functional, cell-based
# Streptococcus = assay: GAS UMAA2166 growth inhibition – luminescence, BacTiterGlo, counter-screen for streptokinase expression inhibitor project, dose response (AID 1915); format: functional, organism-based;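 note: potency for reduction of bacterial viability or growth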
# [7] = Luminescence Cell-Based Dose Response HTS to Identify Inhibitors of 5'UTR Stem-Loop Driven Prion Protein mRNA Translation in H4 Neuroglioblastoma Cells. [Related pubchem assays: 1827 (Project Summary), 1813 (Primary HTS)]; format: functional
# Streptokinase A = molecular target: T1, Streptokinase A (Streptococcus pyogenes serotype M1, UniProt P10520); assay: viability-normalized secreted streptokinase activity reduction – plasminogen activation absorbance, OD405, dose response (AID 1914); format: functional, Streptococcus pyogenes M1 GAS;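 note: secreted streptokinase activity via plasminogen activation per viability signal from cell pellet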
# T1 sequence (P10520 whole entry): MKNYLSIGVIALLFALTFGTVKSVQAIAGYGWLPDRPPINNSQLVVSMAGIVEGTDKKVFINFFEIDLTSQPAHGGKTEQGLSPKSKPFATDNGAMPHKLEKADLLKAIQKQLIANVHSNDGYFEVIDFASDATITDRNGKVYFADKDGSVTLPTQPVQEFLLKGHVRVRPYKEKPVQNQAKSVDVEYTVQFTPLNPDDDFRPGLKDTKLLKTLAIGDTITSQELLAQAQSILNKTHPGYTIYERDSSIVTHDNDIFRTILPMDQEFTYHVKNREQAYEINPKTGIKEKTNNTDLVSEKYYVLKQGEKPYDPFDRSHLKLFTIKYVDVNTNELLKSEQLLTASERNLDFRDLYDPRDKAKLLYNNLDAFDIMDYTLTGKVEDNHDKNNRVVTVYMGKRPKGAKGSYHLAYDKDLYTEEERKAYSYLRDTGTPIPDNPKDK
# [8] = Luminescence Cell-Based Dose Retest to Confirm Inhibitors of Cancer Stem Cells. [Related pubchem assays (depositor defined):AID2717, AID2721]; format: functional; details: Homo sapiens
# [9] = viability of HCT116 lacking mutant beta-catenin – cell-based, human colon tumor, dose response (AID 1045); format: functional;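 note: HCT116 colon tumor cells with beta catenin knocked out; cells exposed to compound for 60 hours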
# [10] = viability of PTEN-deleted HCT116 cells – cell-based, HCT116 PTEN knockout, dose response (AID 1047); format: functional;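 note: HCT116 colon tumor cells with PTEN knocked out; cells exposed to compound for 60 hours before readout; potency for loss of cell viability measured by luminescence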
# [11] = viability of uninfected HEp-2 cells – cell-based, HTS, cytotoxicity control for RSV inhibitor project, dose response (AID 2410); format: functional; details: human respiratory syncytial virus
# H9c2 = assay: cells; format: functional, cell-based; details: Rattus norvegicus, H9c2, Myocardium;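 note: confirmatory concentration-response retest of ultra-high-throughput screening hits for modulation of myocardial damage; cell death induced by hydrogen peroxide oxidative stress; compound pretreatment for 60 min then peroxide exposure for 2 h; potency is for protecting the cells against peroxide damage rather than for killing them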
# [12] = loss of viability in HepG2 cells – cell-based, CellTiter-Glo, cherry-picked, cytotoxicity control for Shn3 inhibitor project, dose response (AID 624134); format: functional
# [13] = non-specific 3'UTR reporter inhibition in Clone20-Shn3RL – cell-based, Renilla luciferase, cherry-picked, counter-screen for Shn3 inhibitor project, dose response (AID 624133); format: functional
# [14] = reduction of Shn3 3'UTR-driven luciferase in osteoblasts – cell-based, Clone20 osteoblasts, firefly luciferase, cherry-picked, dose response (AID 624132); format: functional;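 note: firefly luciferase luminescence from reporter carrying the Shn3 3'UTR in osteoblasts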
# [15] = NIH3T3 cell viability loss – ATP luminescence, mouse fibroblasts, counter-screen, dose response (AID 2010); format: functional, cell-based;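 note: cells exposed to compound for about 90 hours before reading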
# [16] = Trypanosoma cruzi growth suppression in host cells – NIH3T3 host cells, beta-gal luminescence, confirmation (AID 2044); format: functional, cell-based;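 note: intracellular parasites grown in NIH/3T3 mouse fibroblasts as host cells; luminescent beta-galactosidase reporter signal from transgenic T. cruzi replicating inside host cells; inhibitors lower the luminescence signal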
# Cytochrome P450 2D6 = Cytochrome P450 2D6 (Homo sapiens, UniProt P10635);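 note: CYP2D6 member of a cytochrome P450 panel assay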
# Cytochrome P450 2D6, sequence (P10635 whole entry): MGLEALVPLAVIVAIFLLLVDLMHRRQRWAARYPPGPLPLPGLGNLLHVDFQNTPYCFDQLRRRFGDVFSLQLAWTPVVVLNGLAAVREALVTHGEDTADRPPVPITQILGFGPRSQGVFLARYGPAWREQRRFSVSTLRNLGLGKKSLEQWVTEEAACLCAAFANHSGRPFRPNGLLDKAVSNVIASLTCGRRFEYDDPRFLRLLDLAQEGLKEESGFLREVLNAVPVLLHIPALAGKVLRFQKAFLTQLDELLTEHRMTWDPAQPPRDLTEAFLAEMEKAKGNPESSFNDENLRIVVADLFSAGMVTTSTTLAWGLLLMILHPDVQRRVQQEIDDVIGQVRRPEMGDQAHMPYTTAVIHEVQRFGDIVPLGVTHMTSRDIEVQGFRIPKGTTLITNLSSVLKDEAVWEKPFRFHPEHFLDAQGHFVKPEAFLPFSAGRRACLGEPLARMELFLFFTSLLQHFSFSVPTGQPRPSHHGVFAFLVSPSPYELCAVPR
# Cytochrome P450 2C9 = Cytochrome P450 2C9 (Homo sapiens, UniProt P11712)
# Cytochrome P450 2C9, sequence (P11712 whole entry): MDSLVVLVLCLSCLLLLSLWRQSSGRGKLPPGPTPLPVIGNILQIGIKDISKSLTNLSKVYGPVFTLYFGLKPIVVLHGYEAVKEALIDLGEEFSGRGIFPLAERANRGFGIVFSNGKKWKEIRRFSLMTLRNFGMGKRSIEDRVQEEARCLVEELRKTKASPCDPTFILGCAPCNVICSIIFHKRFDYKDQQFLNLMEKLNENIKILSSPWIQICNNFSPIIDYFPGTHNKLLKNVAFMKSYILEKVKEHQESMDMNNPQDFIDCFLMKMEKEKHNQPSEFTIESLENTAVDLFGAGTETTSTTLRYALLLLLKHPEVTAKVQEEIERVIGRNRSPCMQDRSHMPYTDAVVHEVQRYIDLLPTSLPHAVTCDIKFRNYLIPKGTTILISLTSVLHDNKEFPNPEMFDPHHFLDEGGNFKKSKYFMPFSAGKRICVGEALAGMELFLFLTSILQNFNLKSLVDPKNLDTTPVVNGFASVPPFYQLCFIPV
# [17] = molecular target: T2, Heat shock factor protein 1 (Mus musculus, UniProt P38532); assay: enhancement of HSF1-driven luciferase signal – cell-based, NIH3T3, luminescence, dose retest, confirmation (AID 435004); format: functional;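 note: stress induced by proteasome inhibitor MG132 added 30 min after compound; luciferase reporter driven by HSF1 response element in NIH3T3 cells; actives raise luminescence as potentiators of the MG132 stress response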
# T2 sequence (P38532 whole entry): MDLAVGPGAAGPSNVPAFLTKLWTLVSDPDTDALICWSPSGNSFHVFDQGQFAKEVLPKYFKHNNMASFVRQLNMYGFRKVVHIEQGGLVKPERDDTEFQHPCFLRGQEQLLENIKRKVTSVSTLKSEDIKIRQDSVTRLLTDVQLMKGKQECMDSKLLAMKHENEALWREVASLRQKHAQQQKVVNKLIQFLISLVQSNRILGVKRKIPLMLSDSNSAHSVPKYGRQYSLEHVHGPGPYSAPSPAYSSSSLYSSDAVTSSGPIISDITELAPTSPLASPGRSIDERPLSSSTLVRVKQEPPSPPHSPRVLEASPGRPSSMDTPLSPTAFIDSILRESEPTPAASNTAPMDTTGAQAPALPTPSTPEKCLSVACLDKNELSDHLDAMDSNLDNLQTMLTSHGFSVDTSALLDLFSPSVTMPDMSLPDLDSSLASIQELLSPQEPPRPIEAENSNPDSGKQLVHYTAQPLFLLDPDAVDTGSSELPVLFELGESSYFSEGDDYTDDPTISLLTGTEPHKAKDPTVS
# [18] = molecular target: T2, Heat shock factor protein 1; assay: decrease of HSF1-responsive luciferase luminescence – cell-based, NIH3T3, dose retest, confirmation (AID 2382); format: functional;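 note: NIH3T3 fibroblasts with HSF1-driven luciferase reporter stressed by proteasome inhibitor MG132; luminescence from HSF1-driven luciferase expression after 8 hours of MG132 stress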
# [19] = HIV-1 AD8 envelope cell-cell fusion blockers – cherry-pick, dose response (AID 652062); format: functional, cell-based;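 note: luciferase signal from cell-cell fusion driven by HIV-1 clade B AD8 Env; potency is for inhibitors of fusion seen as a drop in luminescence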
# [20] = blockers of HIV-1 envelope-mediated cell-cell fusion – cherry-pick, dose response (AID 652057); format: functional, cell-based
# [21] = blockers of HIV-1 ZM109 envelope-driven cell-cell fusion – HeLa effector, CEM target cells, luciferase, cherry-pick, dose response (AID 652058); format: functional, cell-based;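 note: luciferase signal from HIV-1 Env mediated cell-cell fusion of effector and target cells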
# Paired box protein Pax-8 = Paired box protein Pax-8 (Homo sapiens, UniProt Q06710); assay: PAX8 transcriptional activity inhibition in RMG-I – RMG-I cells, luciferase, cherry-pick, dose response (AID 687027); format: functional, cell-based;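 note: luciferase reporter driven by Pax8 target thyroperoxidase promoter measured by SteadyGlo luminescence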
# Paired box protein Pax-8, sequence (Q06710 whole entry): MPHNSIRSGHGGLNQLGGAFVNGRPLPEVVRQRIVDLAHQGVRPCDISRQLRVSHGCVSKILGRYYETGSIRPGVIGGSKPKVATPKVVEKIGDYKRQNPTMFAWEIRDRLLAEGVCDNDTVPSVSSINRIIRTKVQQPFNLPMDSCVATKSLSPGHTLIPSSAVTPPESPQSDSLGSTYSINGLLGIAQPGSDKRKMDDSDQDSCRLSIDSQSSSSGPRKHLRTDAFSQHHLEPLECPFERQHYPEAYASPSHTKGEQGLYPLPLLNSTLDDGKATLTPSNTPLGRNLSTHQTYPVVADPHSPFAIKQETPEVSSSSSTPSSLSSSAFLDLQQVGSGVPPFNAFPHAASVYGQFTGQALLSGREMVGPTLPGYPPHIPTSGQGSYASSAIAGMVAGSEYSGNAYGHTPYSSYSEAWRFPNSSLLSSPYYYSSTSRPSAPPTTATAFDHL
smiles,measurement,setting,value
COc1ccc(NC(=O)CCC(=O)N(Cc2ccc(OC)c(OC)c2)c2nccs2)cc1,EC50,cells [1],> 350 µM (not active)
same,EC50,cells [2],> 350 µM (not active)
CC1(C)Cc2c(sc(NC(=O)c3ccc(C(=O)c4ccccc4)cc3)c2C(N)=O)C(C)(C)N1,EC50,[3],11.6 µM (active)
same,CC50,[4],20.7 µM (active)
same,EC50,[5],26.3 µM (active)
same,EC50,[6],10.3 µM (active)
same,EC50,Streptococcus,> 150 µM (not active)
same,EC50,[7],16.9 µM (active)
same,EC50,Streptokinase A,> 150 µM (not active)
Cc1ccc(S(=O)(=O)c2nc(-c3ccccc3Cl)oc2N(C)C)cc1,EC50,cells [1],> 350 µM (not active)
same,EC50,cells [2],> 350 µM (not active)
CC(C)OCCCNC(=O)c1c(N)n(Cc2cccs2)c2nc3ccccc3nc12,AC50,[8],3.51 µM (active)
same,EC50,[9],216 µM (active)
same,EC50,[10],84.7 µM (active)
CCOC(=O)C1CCCN(C(=O)c2ccc3nc(-c4ccccc4)c(-c4ccccc4)nc3c2)C1 (configuration not stated),EC50,cells [1],> 350 µM (not active)
same,EC50,cells [2],> 350 µM (not active)
O=c1cc(-c2ccncc2)oc2ccccc12,CC50,[11],36.7 µM (active)
same,IC50,H9c2,> 79 µM (inactive)
CCNC(=O)COc1cccc(C(=O)NCc2ccccc2)c1,EC50,cells [1],> 350 µM (not active)
same,EC50,cells [2],> 350 µM (not active)
O=C(/C=C/c1cn(-c2ccccc2)nc1-c1cccnc1)c1ccco1,CC50,[4],11.5 µM (active)
CC(OC(=O)Cc1nnc(O)c2ccccc12)C(=O)Nc1ccccc1[N+](=O)[O-] (configuration not stated),IC50,H9c2,> 79 µM (inactive)
CC1(C)CC2CC(C)(CN2c2ncnc3ccc(Br)cc23)C1 (configuration not stated),AC50,[12],37.2 µM (active)
same,AC50,[13],972 nM (active)
same,AC50,[14],2.11 µM (active)
Cc1c(NC(=O)CSc2cccc3cccnc23)c(=O)n(-c2ccccc2)n1C,EC50,[15],> 30 µM (not active)
same,EC50,[9],17 µM (active)
same,EC50,[16],1.31 µM (active)
same,EC50,[10],17.4 µM (active)
FC(F)(F)c1cnc(N2CCN(C(S)=NCc3ccccc3)CC2)c(Cl)c1,EC50,cells [1],> 350 µM (not active)
same,EC50,cells [2],> 350 µM (not active)
COCCCn1c(C)nc2c(c1=O)c1nc3ccccc3nc1n2CCc1ccccc1,IC50,H9c2,11.7 µM (active)
CC(=O)c1ccc2c(c1)C1C(Cl)C(Sc3ccccc3[N+](=O)[O-])CC1C(c1ccccc1)N2 (configuration not stated),CC50,[4],> 40 µM (active)
CC1CC/C(=C\c2ccc3c(c2)OCO3)C(=O)/C1=C/c1ccc2c(c1)OCO2 (configuration not stated),AC50,[8],2.92 µM (active)
same,EC50,[9],14.3 µM (active)
same,EC50,[10],13.8 µM (active)
same,AC50,Cytochrome P450 2D6,2.51 µM (inconclusive)
same,AC50,Cytochrome P450 2C9,6.31 µM (inconclusive)
O=C(Nc1nnc(-c2ccco2)o1)c1ccc2ccccc2c1,IC50,H9c2,> 79 µM (inactive)
same,EC50,[5],12.8 µM (active)
same,EC50,Streptococcus,> 150 µM (not active)
same,EC50,Streptokinase A,> 150 µM (not active)
Cc1cc(C)cc(-n2c(N)c(C(=O)Nc3c(C)n(C)n(-c4ccccc4)c3=O)c3nc4ccccc4nc32)c1,EC50,[15],> 60 µM (not active)
same,EC50,[9],13 µM (active)
same,EC50,[16],1.21 µM (active)
same,EC50,[10],11.8 µM (active)
O=C(NCCCN1CCOCC1)c1cc(-c2ccccc2)on1,EC50,cells [1],11.5 µM (active)
same,EC50,cells [2],> 350 µM (not active)
CN(C)CCNC(=O)/C(=C/c1ccc(-c2cccc(Cl)c2)o1)NC(=O)c1ccccc1,EC50,[9],10.3 µM (active)
same,EC50,[17],> 260 µM (inactive)
same,EC50,[10],10.3 µM (active)
Cc1cnc(NC(=O)NCC2CCCC(CNC(=O)Nc3ncc(C)s3)C2)s1 (configuration not stated),CC50,[4],> 40 µM (active)
O=C(CNC(=O)c1nc[nH]c1C(=O)NCC(=O)OCc1ccccc1)OCc1ccccc1,IC50,H9c2,41 µM (inactive)
COc1ccc2nc(O)c(CN(Cc3cccnc3)S(=O)(=O)c3ccccc3F)cc2c1,EC50,[18],6.06 µM (active)
same,IC50,H9c2,> 79 µM (inactive)
COc1ccc(/C=C2\SC(=O)N(CCC(=O)N(C)C3CCS(=O)(=O)C3)C2=O)cc1 (configuration not stated),EC50,cells [1],> 350 µM (not active)
same,EC50,cells [2],> 350 µM (not active)
CCC12CN(S(=O)(=O)c3ccc(C)cc3)CC(CC)(CN(S(=O)(=O)c3ccc(C)cc3)C1)C2=O,AC50,[12],66.7 µM (active)
same,AC50,[19],22 µM (active)
same,AC50,[20],2.44 µM (active)
same,AC50,[21],42.7 µM (active)
same,AC50,[14],3.48 µM (active)
CN(Cc1ccc(OC(F)F)cc1)C(=O)c1cccc(S(=O)(=O)N2CCN(c3ccccc3)CC2)c1,AC50,[12],62.1 µM (active)
same,AC50,[13],1650 nM (active)
same,AC50,[14],2.59 µM (active)
O=c1cc(CN2CCN(S(=O)(=O)c3cccc(Cl)c3)CC2)c2ccc(O)cc2o1,IC50,H9c2,> 79 µM (inactive)
Cc1csc(SCc2nc(O)c3c4c(sc3n2)CCC4)n1,IC50,H9c2,17.1 µM (active)
Cc1ccc(S(=O)(=O)N(C)C[C@@H]2Oc3ccc(NS(=O)(=O)c4ccccc4)cc3CC(=O)N([C@H](C)CO)C[C@@H]2C)cc1,AC50,[19],26.6 µM (active)
same,AC50,[20],2.75 µM (active)
same,AC50,[21],8.38 µM (active)
O=[N+]([O-])c1cc2c(ccc3occc32)o1,AC50,Paired box protein Pax-8,2.49 µM (active)
CN(Cc1ccccc1)N=Nc1[nH]cnc1C(N)=O,AC50,Paired box protein Pax-8,21.2 µM (active)
CS(=O)(=O)Nc1ccc2c(c1)[C@H]1C[C@H](CC(=O)NCc3ccc(-c4ccccc4)cc3)O[C@H](CO)[C@H]1O2,AC50,[19],39 µM (active)
C[C@H](CO)N1C[C@H](C)[C@H](CN(C)S(=O)(=O)c2ccccc2)Oc2ccc(NS(=O)(=O)c3ccc(F)cc3)cc2CC1=O,AC50,[20],15.1 µM (active)
same,AC50,[21],28.8 µM (active)
Cc1ccc(S(=O)(=O)N2CCN(CC(=O)N/N=C\C(Cl)=C\c3ccccc3)CC2)cc1,EC50,[9],39.3 µM (active)
same,EC50,[10],44.2 µM (active)
